Measured values reported in patent publication US4022791A (priority 1975, dated 1977).

Tests used:
Rats [1] = system: Rats; design: Rat Jump .5 hr (current at which the animal first jumps) / Rat Jump .5 hr, second value printed in parentheses / Rat Jump 2 hr (current at which the animal first jumps): unit not given here; settings: in vivo, ip
mice [2] = settings: mouse, in vivo, ip
mice [3] = settings: mouse, in vivo, ip; remark: listed apart in the source
mice [4] = assay: animal or person; format: in vivo, mouse; settings: ip
mice [5] = assay: Toxicity and adverse effects noted (comments), mice; format: in vivo, mouse; settings: at 32 mg./kg.
Excerpt: (§1) The tabulated test results include comments regarding toxicity and adverse effects noted with certain compounds.

Rats [6] = assay: Toxicity and adverse effects noted (comments), rats; format: in vivo, rat; settings: for loss of righting reflex (rats): at 100 mg./kg.
Excerpt: as §1

[7] = Analgesic and tranquilizing effectiveness, summary of Examples 10 and 11; format: in vivo
[8] = Toxicity and adverse effects noted (comments), species not stated; format: in vivo; settings: at 100 mg./kg.
Excerpt: as §1

Rats [9] = settings: rat, in vivo, ip

Compound: COc1ccc(Cl)c2c1CCC(CN1CCC(C(=O)N3CCCC3)CC1)=C2
- Rat Jump 2 hr (current at which the animal first jumps) (Rats [1]): 1.2
- Rat Jump .5 hr (current at which the animal first jumps) (Rats [1]): 1.2
- Hot Plate 2 hr (percentage of mice showing analgesia) (mice [2]): 0
- Hot Plate .5 hr (percentage of mice showing analgesia) (mice [2]): 25
- Tail Flick 2 hr (percentage of analgesia response) (mice [3]): 0
- Tail Flick .5 hr (percentage of analgesia response) (mice [3]): 25
- Tail Pinch 2 hr (percentage of mice showing analgesia) (mice [4]; mouse, in vivo): 0
- Tail Pinch .5 hr (percentage of mice showing analgesia) (mice [4]; mouse, in vivo): 0
- mice died (mice [5]): 1/5

Compound: COc1ccc(Cl)c2c1CCC(CN1CCC(C(=O)N3CCCCC3)CC1)=C2
- Rat Jump 2 hr (current at which the animal first jumps) (Rats [1]): 1.2
- Rat Jump .5 hr (current at which the animal first jumps) (Rats [1]): 1.6
- Hot Plate 2 hr (percentage of mice showing analgesia) (mice [2]): 0
- Hot Plate .5 hr (percentage of mice showing analgesia) (mice [2]): 20
- Tail Flick 2 hr (percentage of analgesia response) (mice [3]): 0
- Tail Flick .5 hr (percentage of analgesia response) (mice [3]): 40
- Tail Pinch 2 hr (percentage of mice showing analgesia) (mice [4]; mouse, in vivo): 0
- Tail Pinch .5 hr (percentage of mice showing analgesia) (mice [4]; mouse, in vivo): 0
- loss of righting reflex (rats) (Rats [6]): 2/5

Compound: COc1ccc(Cl)c2c1CCC(CN1CCC(NC(=O)N3CCCCC3)CC1)=C2
- Rat Jump 2 hr (current at which the animal first jumps) (Rats [1]): 1.2
- Rat Jump .5 hr (current at which the animal first jumps) (Rats [1]): 1.2
- Hot Plate 2 hr (percentage of mice showing analgesia) (mice [2]): 0
- Hot Plate .5 hr (percentage of mice showing analgesia) (mice [2]): 0
- Tail Flick 2 hr (percentage of analgesia response) (mice [3]): 0
- Tail Flick .5 hr (percentage of analgesia response) (mice [3]): 0
- Tail Pinch 2 hr (percentage of mice showing analgesia) (mice [4]; mouse, in vivo): 0
- Tail Pinch .5 hr (percentage of mice showing analgesia) (mice [4]; mouse, in vivo): 0
- loss of righting reflex (rats) (Rats [6]): 1/5

Compound: COc1ccc(Cl)c2c1CCC(CNCC1CC1)=C2
- Rat Jump 2 hr (current at which the animal first jumps) (Rats [1]): 1.2
- Rat Jump .5 hr (current at which the animal first jumps) (Rats [1]): 1.2
- Hot Plate 2 hr (percentage of mice showing analgesia) (mice [2]): 10
- Hot Plate .5 hr (percentage of mice showing analgesia) (mice [2]): 40
- Tail Flick 2 hr (percentage of analgesia response) (mice [3]): 0
- Tail Flick .5 hr (percentage of analgesia response) (mice [3]): 20
- Tail Pinch 2 hr (percentage of mice showing analgesia) (mice [4]; mouse, in vivo): 0
- Tail Pinch .5 hr (percentage of mice showing analgesia) (mice [4]; mouse, in vivo): 40
- rats died (Rats [6]; at 32 mg./kg.): 1/5

Compound: COc1ccc(Cl)c2c1CCC(CN1CCC(OC(C)=O)(c3ccccc3)CC1)=C2 [1-(2-[8-Chloro-5-methoxy-3,4-dihydronaphthyl]methyl)-4-acetoxy-4-phenylpiperidine]
- analgesic and tranquilizing effectiveness [7]: outstanding effectiveness

Compound: CCC(=O)O[C@](Cc1ccccc1)(c1ccccc1)[C@H](C)CN(C)C [d-Propoxyphene, reference compound]
- Rat Jump .5 hr (current at which the animal first jumps) (Rats [1]): 1.2
- Hot Plate 2 hr (percentage of mice showing analgesia) (mice [2]): 0
- Hot Plate .5 hr (percentage of mice showing analgesia) (mice [2]): 60
- Tail Flick 2 hr (percentage of analgesia response) (mice [3]): 20
- Tail Flick .5 hr (percentage of analgesia response) (mice [3]): 40
- ED50 (mice [4]; Mus musculus, read-out: Tail Pinch ED50): 11.5 mg/kg
- toxicity [8]: toxic

Compound: COc1ccc(Cl)c2c1CCC(CN1CCC(OC(C)=O)(c3ccccc3)CC1)=C2 [drawing 79]
- Rat Jump 2 hr (current at which the animal first jumps) (Rats [1]): > 2.2
- Rat Jump .5 hr (current at which the animal first jumps) (Rats [1]): > 2.2
- Hot Plate 2 hr (percentage of mice showing analgesia) (mice [2]): 80
- Hot Plate .5 hr (percentage of mice showing analgesia) (mice [2]): 100
- Tail Flick 2 hr (percentage of analgesia response) (mice [3]): 70
- Tail Flick .5 hr (percentage of analgesia response) (mice [3]): 90
- Tail Pinch 2 hr (percentage of mice showing analgesia) (mice [4]; mouse, in vivo): 100
- Tail Pinch .5 hr (percentage of mice showing analgesia) (mice [4]; mouse, in vivo): 100

Compound: COc1ccc(Cl)c2c1CCC(CN1CCCC1)=C2 [pyrrolidino, 1-(2-[3,4-Dihydro-8-chloro-5-methoxynaphthyl]methyl)pyrrolidine]
- Rat Jump 2 hr (current at which the animal first jumps) (Rats [1]): 2.2
- Rat Jump .5 hr (current at which the animal first jumps) (Rats [1]): 1.2
- Rat Jump .5 hr, second value printed in parentheses (Rats [1]): 2.2
- Hot Plate 2 hr (percentage of mice showing analgesia) (mice [2]): 0
- Hot Plate .5 hr (percentage of mice showing analgesia) (mice [2]): 80
- Tail Flick 2 hr (percentage of analgesia response) (mice [3]): 0
- Tail Flick .5 hr (percentage of analgesia response) (mice [3]): 60
- Tail Pinch 2 hr (percentage of mice showing analgesia) (mice [4]; mouse, in vivo): 0
- Tail Pinch .5 hr (percentage of mice showing analgesia) (mice [4]; mouse, in vivo): 20

Compound: Codeine Sulfate [reference compound]
- Rat Jump .5 hr (current at which the animal first jumps) (Rats [1]): > 2.2
- Hot Plate 2 hr (percentage of mice showing analgesia) (mice [2]): 60
- Hot Plate .5 hr (percentage of mice showing analgesia) (mice [2]): 80
- Tail Flick 2 hr (percentage of analgesia response) (mice [3]): 50
- Tail Flick .5 hr (percentage of analgesia response) (mice [3]): 100
- Tail Pinch ED50 (mice [4]; mouse, in vivo): 15.4 mg/kg
- Amphetamine Antagonism Activity (dosage approximately neutralizing the amphetamine effect) (Rats [9]): > 32 mg/kg
